Data on four compounds can be found in ChEMBL document CHEMBL2203152, “Systematic in vivo screening of a series of 1-propyl-4-arylpiperidines against dopaminergic and serotonergic properties in rat brain: a scaffold-jumping approach” (J Med Chem, 2012).

In assay [1] the test system is Rattus norvegicus. The experiment in a line: Decrease in 5-HIAA level in Sprague-Dawley rat striatum at 5.8 umol/kg, sc by HPLC analysis relative to saline-treated control. It is filed as functional. On the set-up: scale not given: the % may be the effect or the level left.
Assay [2] deals with Rattus norvegicus. The experiment in a line: Increase in DOPAC level in Sprague-Dawley rat striatum at 5.8 umol/kg, sc by HPLC analysis relative to saline-treated control. It is filed as functional.
Assay [3] relates to Rattus norvegicus. Nature of the assay: Reduction in spontaneous locomotor activity in Sprague-Dawley rat at 5.8 umol/kg, sc measured after 15 to 60 mins relative to saline-treated control. Also noted: scale not given: the % may be the effect or the level left. It is filed as functional.
In assay [4] the test system is Rattus norvegicus. Nature of the assay: Increase in DOPAC level in sc dosed Sprague-Dawley rat striatum by HPLC analysis. It is filed as functional.
Assay [5] has as its system Rattus norvegicus. The experiment in a line: Decrease in 5-HIAA level in Sprague-Dawley rat striatum at 6.4 umol/kg, sc by HPLC analysis relative to saline-treated control. The class given is functional. Also noted: scale not given: the % may be the effect or the level left.
Assay [6] concerns Rattus norvegicus. The experiment in a line: Increase in DOPAC level in Sprague-Dawley rat striatum at 6.4 umol/kg, sc by HPLC analysis relative to saline-treated control. The class given is functional.
Assay [7] has as its system Rattus norvegicus. The experiment in a line: Reduction in spontaneous locomotor activity in Sprague-Dawley rat at 6.4 umol/kg, sc measured after 15 to 60 mins relative to saline-treated control. The class given is functional. Also noted: scale not given: the % may be the effect or the level left.
The test system of assay [8] is Rattus norvegicus. Nature of the assay: Reduction in spontaneous locomotor activity in Sprague-Dawley rat at 33 umol/kg, sc measured after 15 to 60 mins relative to saline-treated control. It is filed as functional. Also noted: scale not given: the % may be the effect or the level left.
For assay [9], the system named is Rattus norvegicus. The experiment in a line: Decrease in 5-HIAA level in Sprague-Dawley rat striatum at 33 umol/kg, sc by HPLC analysis relative to saline-treated control. It is filed as functional. Also noted: scale not given: the % may be the effect or the level left.
For assay [10], the system named is Rattus norvegicus. Nature of the assay: Increase in DOPAC level in Sprague-Dawley rat striatum at 33 umol/kg, sc by HPLC analysis relative to saline-treated control. It is filed as functional.
Assay [11] addresses T1, Amine oxidase [flavin-containing] A (Rattus norvegicus, UniProt P21396).
T1 sequence (P21396 whole entry): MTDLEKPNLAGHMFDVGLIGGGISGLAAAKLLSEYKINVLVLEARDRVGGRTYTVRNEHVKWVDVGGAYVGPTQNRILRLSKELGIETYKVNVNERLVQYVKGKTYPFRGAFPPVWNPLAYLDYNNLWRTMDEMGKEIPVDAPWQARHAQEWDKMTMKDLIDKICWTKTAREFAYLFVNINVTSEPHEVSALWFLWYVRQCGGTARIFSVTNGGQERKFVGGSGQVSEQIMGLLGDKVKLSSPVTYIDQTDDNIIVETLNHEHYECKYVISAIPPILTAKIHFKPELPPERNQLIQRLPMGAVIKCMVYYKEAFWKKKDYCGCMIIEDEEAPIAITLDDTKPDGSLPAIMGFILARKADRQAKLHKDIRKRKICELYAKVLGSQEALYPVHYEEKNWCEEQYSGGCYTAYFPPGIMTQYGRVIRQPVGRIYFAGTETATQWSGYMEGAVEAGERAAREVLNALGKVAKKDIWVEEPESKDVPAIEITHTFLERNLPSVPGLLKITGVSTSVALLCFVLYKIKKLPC
Nature of the assay: Displacement of [3H]Ro 41-1049 from MAO-A in rat cerebral cortex by competition binding assay. The class given is tissue-based. Particulars: read-out: Ki(app).

A further assay is filed under the species Homo sapiens. The experiment in a line: Selectivity ratio of Ki(app) for human low affinity Dopamine D2S receptor to Ki(app) for human high affinity Dopamine D2S receptor.
The target in assay [12] is Sodium-dependent serotonin transporter (Homo sapiens, UniProt P31645). The experiment in a line: Displacement of [3H]imipramine from human SERT expressed in CHO cells by competition binding assay. It is filed as cell-based. The settings on record: read-out: Ki(app).
Sodium-dependent serotonin transporter, sequence (P31645 whole entry): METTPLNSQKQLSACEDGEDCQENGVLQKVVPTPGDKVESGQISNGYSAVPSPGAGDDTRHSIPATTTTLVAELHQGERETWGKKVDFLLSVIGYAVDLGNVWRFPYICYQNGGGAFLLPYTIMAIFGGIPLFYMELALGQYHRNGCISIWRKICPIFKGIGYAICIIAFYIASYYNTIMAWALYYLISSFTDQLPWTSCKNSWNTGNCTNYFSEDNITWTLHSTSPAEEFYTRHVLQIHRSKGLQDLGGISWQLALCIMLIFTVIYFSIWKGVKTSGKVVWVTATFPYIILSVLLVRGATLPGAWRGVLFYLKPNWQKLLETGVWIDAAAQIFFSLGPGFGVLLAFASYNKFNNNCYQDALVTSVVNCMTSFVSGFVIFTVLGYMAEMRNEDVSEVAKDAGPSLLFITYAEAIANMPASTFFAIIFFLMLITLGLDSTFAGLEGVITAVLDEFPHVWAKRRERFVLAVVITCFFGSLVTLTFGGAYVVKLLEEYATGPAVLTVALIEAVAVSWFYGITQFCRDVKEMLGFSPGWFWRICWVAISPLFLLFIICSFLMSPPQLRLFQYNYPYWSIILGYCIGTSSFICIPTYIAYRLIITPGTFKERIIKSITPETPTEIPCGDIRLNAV
The target in assay [13] is T2, D(2) dopamine receptor (Homo sapiens, UniProt P14416). The experiment in a line: Displacement of [3H]7-OH-DPAT from human high affinity Dopamine D2S receptor by competition binding assay. In general terms: Displacement assays read how much labelled ligand stays bound in the presence of the test substance.
T2 sequence (P14416 whole entry): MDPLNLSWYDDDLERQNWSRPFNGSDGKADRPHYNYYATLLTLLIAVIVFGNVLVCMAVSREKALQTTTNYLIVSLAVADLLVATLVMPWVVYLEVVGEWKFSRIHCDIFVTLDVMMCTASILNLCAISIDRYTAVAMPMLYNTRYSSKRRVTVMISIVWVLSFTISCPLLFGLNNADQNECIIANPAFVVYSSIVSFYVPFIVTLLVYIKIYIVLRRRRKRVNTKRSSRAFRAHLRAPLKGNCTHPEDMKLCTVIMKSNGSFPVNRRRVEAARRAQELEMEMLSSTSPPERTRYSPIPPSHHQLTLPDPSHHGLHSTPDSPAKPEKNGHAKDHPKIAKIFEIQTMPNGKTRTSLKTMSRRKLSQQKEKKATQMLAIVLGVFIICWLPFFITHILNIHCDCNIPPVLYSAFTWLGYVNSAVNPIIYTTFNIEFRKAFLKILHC
Assay [14] concerns the target T2, D(2) dopamine receptor. The experiment in a line: Displacement of [3H]methylspiperone from human low affinity Dopamine D2S receptor by competition binding assay.
For assay [15], the target named is T3, 5-hydroxytryptamine receptor 1A (Homo sapiens) (UniProt P08908).
T3 sequence (whole entry): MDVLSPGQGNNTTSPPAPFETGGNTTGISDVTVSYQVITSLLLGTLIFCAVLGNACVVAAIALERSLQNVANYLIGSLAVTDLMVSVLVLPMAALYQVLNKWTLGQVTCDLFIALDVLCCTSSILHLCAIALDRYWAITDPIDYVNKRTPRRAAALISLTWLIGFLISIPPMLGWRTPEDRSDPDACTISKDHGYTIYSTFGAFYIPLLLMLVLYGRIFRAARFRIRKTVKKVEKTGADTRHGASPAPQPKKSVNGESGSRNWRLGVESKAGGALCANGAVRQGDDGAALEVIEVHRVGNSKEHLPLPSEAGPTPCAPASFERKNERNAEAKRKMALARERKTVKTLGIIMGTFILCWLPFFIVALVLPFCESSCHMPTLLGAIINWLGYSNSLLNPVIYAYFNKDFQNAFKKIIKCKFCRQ
Nature of the assay: Displacement of [3H]8- OH-DPAT from human 5-HT1A at 1 uM by CEREP assay.

Assay [16] deals with Sodium-dependent dopamine transporter (Homo sapiens) (UniProt Q01959). Nature of the assay: Displacement of [3H]BTCP from human DAT at 1 uM by CEREP assay.
Sodium-dependent dopamine transporter (Homo sapiens), sequence (Q01959 whole entry): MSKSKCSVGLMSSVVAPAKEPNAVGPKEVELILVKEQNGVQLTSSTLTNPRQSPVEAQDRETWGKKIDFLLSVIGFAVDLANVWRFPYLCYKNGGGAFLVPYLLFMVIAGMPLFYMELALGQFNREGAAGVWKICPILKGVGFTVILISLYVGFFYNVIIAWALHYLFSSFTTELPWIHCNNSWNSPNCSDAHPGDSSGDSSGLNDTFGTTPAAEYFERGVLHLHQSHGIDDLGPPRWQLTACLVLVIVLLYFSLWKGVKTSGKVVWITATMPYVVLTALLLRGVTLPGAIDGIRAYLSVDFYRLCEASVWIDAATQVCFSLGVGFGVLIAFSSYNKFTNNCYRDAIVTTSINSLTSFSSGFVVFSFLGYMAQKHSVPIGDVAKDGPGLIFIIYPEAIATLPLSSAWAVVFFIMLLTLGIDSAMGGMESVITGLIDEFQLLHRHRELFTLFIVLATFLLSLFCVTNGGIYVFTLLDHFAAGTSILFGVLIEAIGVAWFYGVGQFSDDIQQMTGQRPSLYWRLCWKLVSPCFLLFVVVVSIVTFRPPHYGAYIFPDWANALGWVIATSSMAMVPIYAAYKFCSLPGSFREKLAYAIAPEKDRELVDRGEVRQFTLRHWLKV
Assay [17] addresses T4, D(4) dopamine receptor (Homo sapiens) (UniProt P21917).
T4 sequence (whole entry): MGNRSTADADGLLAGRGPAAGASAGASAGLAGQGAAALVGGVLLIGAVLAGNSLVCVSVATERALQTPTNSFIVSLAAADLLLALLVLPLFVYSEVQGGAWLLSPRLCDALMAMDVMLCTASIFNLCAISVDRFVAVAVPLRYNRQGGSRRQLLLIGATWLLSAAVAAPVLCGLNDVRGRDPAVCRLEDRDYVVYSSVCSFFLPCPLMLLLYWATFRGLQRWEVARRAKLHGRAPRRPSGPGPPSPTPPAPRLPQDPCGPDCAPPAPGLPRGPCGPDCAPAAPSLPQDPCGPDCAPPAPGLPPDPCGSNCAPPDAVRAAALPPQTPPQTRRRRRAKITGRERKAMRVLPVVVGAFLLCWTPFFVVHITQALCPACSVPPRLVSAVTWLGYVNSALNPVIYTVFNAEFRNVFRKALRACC
The experiment in a line: Displacement of [3H]methylspiperone from human dopamine D4 receptor at 1 uM by CEREP assay.

The target in another assay is D(3) dopamine receptor (Homo sapiens, UniProt P35462). The experiment in a line: Displacement of [3H]7-OH-DPAT from human dopamine D3 receptor at 1 uM by CEREP assay.
D(3) dopamine receptor, sequence (P35462 whole entry): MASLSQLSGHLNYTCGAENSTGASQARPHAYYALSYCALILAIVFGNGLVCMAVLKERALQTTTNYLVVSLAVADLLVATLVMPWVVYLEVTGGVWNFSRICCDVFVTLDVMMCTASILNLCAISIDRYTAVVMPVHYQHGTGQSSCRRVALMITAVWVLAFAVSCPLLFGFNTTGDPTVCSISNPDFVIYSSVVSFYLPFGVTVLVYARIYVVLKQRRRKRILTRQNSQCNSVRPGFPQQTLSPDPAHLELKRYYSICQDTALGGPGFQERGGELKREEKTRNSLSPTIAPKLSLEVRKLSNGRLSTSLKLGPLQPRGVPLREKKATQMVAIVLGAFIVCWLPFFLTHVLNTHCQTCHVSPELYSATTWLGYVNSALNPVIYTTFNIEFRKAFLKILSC
Assay [18] deals with Rattus norvegicus. The experiment in a line: Decrease in 5-HIAA level in Sprague-Dawley rat striatum at 25 umol/kg, sc by HPLC analysis relative to saline-treated control. It is filed as functional. On the set-up: scale not given: the % may be the effect or the level left.
Assay [19] relates to Rattus norvegicus. The experiment in a line: Increase in DOPAC level in Sprague-Dawley rat striatum at 25 umol/kg, sc by HPLC analysis relative to saline-treated control. The class given is functional.
For assay [20], the system named is Rattus norvegicus. Nature of the assay: Reduction in spontaneous locomotor activity in Sprague-Dawley rat at 25 umol/kg, sc measured after 15 to 60 mins relative to saline-treated control. It is filed as functional. On the set-up: scale not given: the % may be the effect or the level left.

By ED50 is commonly meant the dose at which the effect has come halfway, by size or by number of responders. As usually defined, the inhibition is the relative decrease from the control value, in per cent.

Each structure is given as a SMILES string. Activity calls are given as the source filed them. No cut-off for these calls is given here.

Consider `O=c1[nH]c2ccccc2n1C1CCN(CCCC(c2ccc(F)cc2)c2ccc(F)cc2)CC1` [PIMOZIDE], for which the Activity is 101% in the assay with Rattus norvegicus [1], 416% in the assay with Rattus norvegicus [2] and 7.3% in the assay on Rattus norvegicus [3]. The compound further gave an ED50 in the assay with Rattus norvegicus [4] of 1.6 µmol/kg.

For the compound `O=C1Cc2cc(CCN3CCN(c4nsc5ccccc45)CC3)c(Cl)cc2N1` [ZIPRASIDONE], the values for the Activity in the assay on Rattus norvegicus [5], in the assay with Rattus norvegicus [6] and with Rattus norvegicus [7] were 98%, 311% and 13%, respectively. In the assay on Rattus norvegicus [4], the ED50 is 1.2 µmol/kg.

As for `CCCN1CCC(c2noc3cc(F)ccc23)CC1`, the Activity in the assay on Rattus norvegicus [8] is 8.3%; with Rattus norvegicus [9], 111%; in the assay on Rattus norvegicus [10] it was 350%. The compound also gave an ED50 in the assay on Rattus norvegicus [4] of 4 µmol/kg. Besides, the Ki in [11] was found to be 2230 nM; in assay [12], 29800 nM; on D(2) dopamine receptor [13], 34 nM; at D(2) dopamine receptor [14], 194 nM. Besides, the Ratio Ki(app) in the assay filed under Homo sapiens came out at 5.7. Further, the inhibition was determined as 17% in [15], 15% in assay [16], 37% in assay [17] and 83% on D(3) dopamine receptor.

Consider `CN(C)CCCC1(c2ccc(F)cc2)OCc2cc(C#N)ccc21` (stereo not given) [CITALOPRAM], for which the Activity in the assay with Rattus norvegicus [18] is on record as 69%; in the assay on Rattus norvegicus [19], 101%; in the assay on Rattus norvegicus [20], 50%. In the assay with Rattus norvegicus [4], the ED50 result is “inactive”.
